Results: article PMC9856672, “SGC-CAMKK2-1: A Chemical Probe for CAMKK2” (Cells, 2023)

Columns and labels:
[1] = molecular target: T1, ABL1(Y253F)-phosphorylated (Homo sapiens, UniProt P00519, Y253F); experiment: KINOMEscan 1 μM, ABL1(Y253F)-phosphorylated; format: binding; conditions: 1000 nM; Entrez ABL1; read-out: Percent Control
T1 construct: purchased Eurofins DiscoverX KINOMEscan
Description: (§1) Supplement cells-12-00287-s001.zip/File S2. KinomeScan data for the CAMKK2 probe and negative control.xlsx, sheet "SGC-CAMKK2-1" | column: Percent Control

GAK = molecular target: T2, GAK (Homo sapiens, UniProt O14976); experiment: KINOMEscan 1 μM, GAK; format: binding; conditions: 1000 nM; Entrez GAK; read-out: Percent Control
T2 construct: purchased Eurofins DiscoverX KINOMEscan
Description: as §1

PIK3C2B = molecular target: T3, PIK3C2B (Homo sapiens, UniProt O00750); experiment: KINOMEscan 1 μM, PIK3C2B; format: binding; conditions: 1000 nM; Entrez PIK3C2B; read-out: Percent Control
T3 construct: purchased Eurofins DiscoverX KINOMEscan
Description: as §1

IRAK3 = molecular target: T4, IRAK3 (Homo sapiens, UniProt Q9Y616); experiment: KINOMEscan 1 μM, IRAK3; format: binding; conditions: 1000 nM; Entrez IRAK3; read-out: Percent Control
T4 construct: purchased Eurofins DiscoverX KINOMEscan
Description: as §1

[2] = molecular target: T5, ABL1(M351T)-phosphorylated (Homo sapiens, UniProt P00519, M351T); experiment: KINOMEscan 1 μM, ABL1(M351T)-phosphorylated; format: binding; conditions: 1000 nM; Entrez ABL1; read-out: Percent Control
T5 construct: purchased Eurofins DiscoverX KINOMEscan
Description: as §1

DCAMKL1 = molecular target: T6, DCAMKL1 (Homo sapiens, UniProt O15075); experiment: KINOMEscan 1 μM, DCAMKL1; format: binding; conditions: 1000 nM; Entrez DCLK1; read-out: Percent Control
T6 construct: purchased Eurofins DiscoverX KINOMEscan
Description: as §1

GRK2 = molecular target: T7, GRK2 (Homo sapiens, UniProt P25098); experiment: KINOMEscan 1 μM, GRK2; format: binding; conditions: 1000 nM; Entrez ADRBK1; read-out: Percent Control
T7 construct: purchased Eurofins DiscoverX KINOMEscan
Description: as §1

KIT(L576P) = molecular target: T8, KIT(L576P) (Homo sapiens, UniProt P10721, L576P); experiment: KINOMEscan 1 μM, KIT(L576P); format: binding; conditions: 1000 nM; Entrez KIT; read-out: Percent Control
T8 construct: purchased Eurofins DiscoverX KINOMEscan
Description: as §1

MET(M1250T) = molecular target: T9, MET(M1250T) (Homo sapiens, UniProt P08581, M1250T); experiment: KINOMEscan 1 μM, MET(M1250T); format: binding; conditions: 1000 nM; Entrez MET; read-out: Percent Control
T9 construct: purchased Eurofins DiscoverX KINOMEscan
T9 sequence (P08581 25-1390 M1250T): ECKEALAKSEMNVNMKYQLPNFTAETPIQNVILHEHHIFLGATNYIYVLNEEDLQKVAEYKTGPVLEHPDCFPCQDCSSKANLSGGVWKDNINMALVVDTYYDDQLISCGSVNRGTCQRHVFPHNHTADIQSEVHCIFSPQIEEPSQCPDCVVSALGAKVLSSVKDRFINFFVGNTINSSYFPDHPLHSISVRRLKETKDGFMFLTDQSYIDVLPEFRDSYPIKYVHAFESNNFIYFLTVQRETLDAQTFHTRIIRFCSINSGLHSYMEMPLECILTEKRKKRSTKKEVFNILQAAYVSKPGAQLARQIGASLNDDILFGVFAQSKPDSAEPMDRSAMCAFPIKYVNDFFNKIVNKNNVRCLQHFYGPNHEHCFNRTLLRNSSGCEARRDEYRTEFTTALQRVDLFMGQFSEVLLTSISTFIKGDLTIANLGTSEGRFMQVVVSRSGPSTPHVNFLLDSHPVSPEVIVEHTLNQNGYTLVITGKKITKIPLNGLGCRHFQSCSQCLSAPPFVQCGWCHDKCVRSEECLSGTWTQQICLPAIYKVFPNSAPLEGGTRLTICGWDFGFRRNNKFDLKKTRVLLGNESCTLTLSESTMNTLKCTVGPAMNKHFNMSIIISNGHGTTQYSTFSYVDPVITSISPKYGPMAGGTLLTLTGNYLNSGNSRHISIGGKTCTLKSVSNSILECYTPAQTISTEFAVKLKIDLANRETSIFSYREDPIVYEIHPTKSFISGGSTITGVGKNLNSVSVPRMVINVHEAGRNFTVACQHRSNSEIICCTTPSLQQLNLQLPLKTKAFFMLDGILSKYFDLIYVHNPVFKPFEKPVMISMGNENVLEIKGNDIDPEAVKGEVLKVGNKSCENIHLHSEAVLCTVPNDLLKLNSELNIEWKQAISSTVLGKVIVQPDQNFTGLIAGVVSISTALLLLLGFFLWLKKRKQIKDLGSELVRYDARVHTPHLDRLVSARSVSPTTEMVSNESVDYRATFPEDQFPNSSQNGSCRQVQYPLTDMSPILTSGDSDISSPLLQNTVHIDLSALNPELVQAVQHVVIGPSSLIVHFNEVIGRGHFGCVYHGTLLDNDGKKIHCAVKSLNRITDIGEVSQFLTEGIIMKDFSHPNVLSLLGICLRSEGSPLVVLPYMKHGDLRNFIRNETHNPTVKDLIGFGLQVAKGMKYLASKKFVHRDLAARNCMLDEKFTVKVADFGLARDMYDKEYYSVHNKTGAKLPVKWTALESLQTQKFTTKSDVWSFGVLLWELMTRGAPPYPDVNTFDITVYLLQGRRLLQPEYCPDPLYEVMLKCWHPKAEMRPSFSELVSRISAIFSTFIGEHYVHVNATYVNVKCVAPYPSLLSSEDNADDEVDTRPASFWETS
Description: as §1

PRKD1 [3] = molecular target: T10, PRKD1 (Homo sapiens, UniProt Q15139); experiment: DiscoverX KINOMEscan binding assay at 1 μM, PRKD1; conditions: Compound Concentration 1000 nM, read-out: Percent Control
T10 construct: purchased Eurofins DiscoverX KINOMEscan
T10 sequence (Q15139 whole entry): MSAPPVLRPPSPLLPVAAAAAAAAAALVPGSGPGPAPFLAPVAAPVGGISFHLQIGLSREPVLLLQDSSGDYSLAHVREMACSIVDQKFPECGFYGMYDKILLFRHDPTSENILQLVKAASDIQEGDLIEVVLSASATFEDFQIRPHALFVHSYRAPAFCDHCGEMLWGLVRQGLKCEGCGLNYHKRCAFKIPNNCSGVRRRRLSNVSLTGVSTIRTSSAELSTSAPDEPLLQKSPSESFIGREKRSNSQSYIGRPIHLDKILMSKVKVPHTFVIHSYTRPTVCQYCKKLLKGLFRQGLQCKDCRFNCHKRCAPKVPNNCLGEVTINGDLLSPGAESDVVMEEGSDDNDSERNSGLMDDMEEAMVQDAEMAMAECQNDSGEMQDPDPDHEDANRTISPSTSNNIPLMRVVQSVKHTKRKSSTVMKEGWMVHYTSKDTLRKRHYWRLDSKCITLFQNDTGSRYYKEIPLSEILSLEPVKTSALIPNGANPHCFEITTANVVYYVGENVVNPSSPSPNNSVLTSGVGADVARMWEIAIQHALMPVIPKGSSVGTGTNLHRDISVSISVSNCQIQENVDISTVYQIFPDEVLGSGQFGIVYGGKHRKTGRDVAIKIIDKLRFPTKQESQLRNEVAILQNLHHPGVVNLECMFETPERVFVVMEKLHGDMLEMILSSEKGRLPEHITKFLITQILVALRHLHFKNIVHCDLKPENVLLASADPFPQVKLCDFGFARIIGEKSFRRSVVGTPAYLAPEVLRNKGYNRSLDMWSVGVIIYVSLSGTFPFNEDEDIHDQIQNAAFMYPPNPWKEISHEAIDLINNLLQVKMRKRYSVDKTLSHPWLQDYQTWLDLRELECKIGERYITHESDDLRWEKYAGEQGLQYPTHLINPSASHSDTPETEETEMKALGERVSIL
Description: as §1

TSSK1B = molecular target: T11, TSSK1B (Homo sapiens, UniProt Q9BXA7); experiment: DiscoverX KINOMEscan binding assay at 1 μM, TSSK1B; conditions: Compound Concentration 1000 nM, read-out: Percent Control
T11 construct: purchased Eurofins DiscoverX KINOMEscan
Description: as §1

TTK = molecular target: T12, TTK (Homo sapiens, UniProt P33981); experiment: DiscoverX KINOMEscan binding assay at 1 μM, TTK; conditions: Compound Concentration 1000 nM, read-out: Percent Control
T12 construct: purchased Eurofins DiscoverX KINOMEscan
Description: as §1

WNK4 = molecular target: T13, WNK4 (Homo sapiens, UniProt Q96J92); experiment: DiscoverX KINOMEscan binding assay at 1 μM, WNK4; conditions: Compound Concentration 1000 nM, read-out: Percent Control
T13 construct: purchased Eurofins DiscoverX KINOMEscan
Description: as §1

YANK1 = molecular target: T14, YANK1 (Homo sapiens, UniProt Q8WU08); experiment: DiscoverX KINOMEscan binding assay at 1 μM, YANK1; conditions: YANK1 (STK32A); Compound Concentration 1000 nM; read-out: Percent Control
T14 construct: purchased Eurofins DiscoverX KINOMEscan
Description: as §1

PIM2 = PIM2 (Homo sapiens, UniProt Q9P1W9); experiment: PIM2 inhibition at Reaction Biology Corporation; format: biochemical; set-up: purchased Reaction Biology Corporation; conditions: n = 1, read-out: PIM2 Enzyme IC50
KIT(D816V) = molecular target: T15, KIT(D816V) (Homo sapiens, UniProt P10721, D816V); experiment: KINOMEscan at 1 μM, KIT(D816V); format: binding; conditions: 1000 nM, read-out: Percent Control
T15 construct: purchased Eurofins DiscoverX KINOMEscan
Description: (§2) Supplement cells-12-00287-s001.zip/File S2. KinomeScan data for the CAMKK2 probe and negative control.xlsx, sheet "SGC-CAMKK2-1N" | column: Percent Control

TRPM6 = molecular target: T16, TRPM6 (Homo sapiens, UniProt Q9BX84); experiment: KINOMEscan at 1 μM, TRPM6; format: binding; conditions: 1000 nM, read-out: Percent Control
T16 construct: purchased Eurofins DiscoverX KINOMEscan
Description: as §2

WNK1 = molecular target: T17, WNK1 (Homo sapiens, UniProt Q9H4A3); experiment: KINOMEscan at 1 μM, WNK1; format: binding; conditions: 1000 nM, read-out: Percent Control
T17 construct: purchased Eurofins DiscoverX KINOMEscan
Description: as §2

MEK5 = molecular target: T18, MEK5 (Homo sapiens, UniProt Q13163); experiment: KINOMEscan at 1 μM, MEK5; format: binding; conditions: 1000 nM, read-out: Percent Control
T18 construct: purchased Eurofins DiscoverX KINOMEscan
Description: as §2

PFPK5(P.falciparum) = molecular target: T19, PFPK5(P.falciparum) (Plasmodium falciparum, UniProt P61075); experiment: KINOMEscan at 1 μM, PFPK5(P.falciparum); format: binding; conditions: 1000 nM, read-out: Percent Control
T19 construct: purchased Eurofins DiscoverX KINOMEscan
Description: as §2

PIK3CA(Q546K) = molecular target: T20, PIK3CA(Q546K) (Homo sapiens, UniProt P42336, Q546K); experiment: KINOMEscan at 1 μM, PIK3CA(Q546K); format: binding; conditions: 1000 nM, read-out: Percent Control
T20 construct: purchased Eurofins DiscoverX KINOMEscan
Description: as §2

EPHB6 = molecular target: T21, EPHB6 (Homo sapiens, UniProt O15197); experiment: KINOMEscan at 1 μM, EPHB6; format: binding; conditions: 1000 nM, read-out: Percent Control
T21 construct: purchased Eurofins DiscoverX KINOMEscan
Description: as §2

PRKX = molecular target: T22, PRKX (Homo sapiens, UniProt P51817); experiment: KINOMEscan at 1 μM, PRKX; format: binding; conditions: 1000 nM, read-out: Percent Control
T22 construct: purchased Eurofins DiscoverX KINOMEscan
Description: as §2

PAK4 = molecular target: T23, PAK4 (Homo sapiens, UniProt O96013); experiment: KINOMEscan at 1 μM, PAK4; format: binding; conditions: 1000 nM, read-out: Percent Control
T23 construct: purchased Eurofins DiscoverX KINOMEscan
T23 sequence (O96013 whole entry): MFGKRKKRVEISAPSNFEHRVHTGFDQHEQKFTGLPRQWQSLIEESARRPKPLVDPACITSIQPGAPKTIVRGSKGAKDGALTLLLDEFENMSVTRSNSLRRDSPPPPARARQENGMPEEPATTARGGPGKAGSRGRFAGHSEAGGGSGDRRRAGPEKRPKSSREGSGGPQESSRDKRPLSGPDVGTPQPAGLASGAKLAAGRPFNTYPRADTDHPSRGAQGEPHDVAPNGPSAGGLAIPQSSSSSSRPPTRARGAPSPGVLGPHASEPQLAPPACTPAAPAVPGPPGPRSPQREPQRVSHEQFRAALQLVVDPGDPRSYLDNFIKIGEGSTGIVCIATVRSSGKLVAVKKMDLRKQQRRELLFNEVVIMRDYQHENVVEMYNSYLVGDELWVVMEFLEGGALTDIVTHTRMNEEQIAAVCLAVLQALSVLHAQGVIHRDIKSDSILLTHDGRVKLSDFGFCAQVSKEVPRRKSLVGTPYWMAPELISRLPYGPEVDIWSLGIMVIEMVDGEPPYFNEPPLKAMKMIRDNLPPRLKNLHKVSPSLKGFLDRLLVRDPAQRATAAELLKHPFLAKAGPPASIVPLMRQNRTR
Description: as §2

NLK = molecular target: T24, NLK (Homo sapiens, UniProt Q9UBE8); experiment: KINOMEscan at 1 μM, NLK; format: binding; conditions: 1000 nM, read-out: Percent Control
T24 construct: purchased Eurofins DiscoverX KINOMEscan
Description: as §2

CIT = molecular target: T25, CIT (Homo sapiens, UniProt O14578); experiment: KINOMEscan at 1 μM, CIT; format: binding; conditions: 1000 nM, read-out: Percent Control
T25 construct: purchased Eurofins DiscoverX KINOMEscan
T25 sequence (O14578 whole entry): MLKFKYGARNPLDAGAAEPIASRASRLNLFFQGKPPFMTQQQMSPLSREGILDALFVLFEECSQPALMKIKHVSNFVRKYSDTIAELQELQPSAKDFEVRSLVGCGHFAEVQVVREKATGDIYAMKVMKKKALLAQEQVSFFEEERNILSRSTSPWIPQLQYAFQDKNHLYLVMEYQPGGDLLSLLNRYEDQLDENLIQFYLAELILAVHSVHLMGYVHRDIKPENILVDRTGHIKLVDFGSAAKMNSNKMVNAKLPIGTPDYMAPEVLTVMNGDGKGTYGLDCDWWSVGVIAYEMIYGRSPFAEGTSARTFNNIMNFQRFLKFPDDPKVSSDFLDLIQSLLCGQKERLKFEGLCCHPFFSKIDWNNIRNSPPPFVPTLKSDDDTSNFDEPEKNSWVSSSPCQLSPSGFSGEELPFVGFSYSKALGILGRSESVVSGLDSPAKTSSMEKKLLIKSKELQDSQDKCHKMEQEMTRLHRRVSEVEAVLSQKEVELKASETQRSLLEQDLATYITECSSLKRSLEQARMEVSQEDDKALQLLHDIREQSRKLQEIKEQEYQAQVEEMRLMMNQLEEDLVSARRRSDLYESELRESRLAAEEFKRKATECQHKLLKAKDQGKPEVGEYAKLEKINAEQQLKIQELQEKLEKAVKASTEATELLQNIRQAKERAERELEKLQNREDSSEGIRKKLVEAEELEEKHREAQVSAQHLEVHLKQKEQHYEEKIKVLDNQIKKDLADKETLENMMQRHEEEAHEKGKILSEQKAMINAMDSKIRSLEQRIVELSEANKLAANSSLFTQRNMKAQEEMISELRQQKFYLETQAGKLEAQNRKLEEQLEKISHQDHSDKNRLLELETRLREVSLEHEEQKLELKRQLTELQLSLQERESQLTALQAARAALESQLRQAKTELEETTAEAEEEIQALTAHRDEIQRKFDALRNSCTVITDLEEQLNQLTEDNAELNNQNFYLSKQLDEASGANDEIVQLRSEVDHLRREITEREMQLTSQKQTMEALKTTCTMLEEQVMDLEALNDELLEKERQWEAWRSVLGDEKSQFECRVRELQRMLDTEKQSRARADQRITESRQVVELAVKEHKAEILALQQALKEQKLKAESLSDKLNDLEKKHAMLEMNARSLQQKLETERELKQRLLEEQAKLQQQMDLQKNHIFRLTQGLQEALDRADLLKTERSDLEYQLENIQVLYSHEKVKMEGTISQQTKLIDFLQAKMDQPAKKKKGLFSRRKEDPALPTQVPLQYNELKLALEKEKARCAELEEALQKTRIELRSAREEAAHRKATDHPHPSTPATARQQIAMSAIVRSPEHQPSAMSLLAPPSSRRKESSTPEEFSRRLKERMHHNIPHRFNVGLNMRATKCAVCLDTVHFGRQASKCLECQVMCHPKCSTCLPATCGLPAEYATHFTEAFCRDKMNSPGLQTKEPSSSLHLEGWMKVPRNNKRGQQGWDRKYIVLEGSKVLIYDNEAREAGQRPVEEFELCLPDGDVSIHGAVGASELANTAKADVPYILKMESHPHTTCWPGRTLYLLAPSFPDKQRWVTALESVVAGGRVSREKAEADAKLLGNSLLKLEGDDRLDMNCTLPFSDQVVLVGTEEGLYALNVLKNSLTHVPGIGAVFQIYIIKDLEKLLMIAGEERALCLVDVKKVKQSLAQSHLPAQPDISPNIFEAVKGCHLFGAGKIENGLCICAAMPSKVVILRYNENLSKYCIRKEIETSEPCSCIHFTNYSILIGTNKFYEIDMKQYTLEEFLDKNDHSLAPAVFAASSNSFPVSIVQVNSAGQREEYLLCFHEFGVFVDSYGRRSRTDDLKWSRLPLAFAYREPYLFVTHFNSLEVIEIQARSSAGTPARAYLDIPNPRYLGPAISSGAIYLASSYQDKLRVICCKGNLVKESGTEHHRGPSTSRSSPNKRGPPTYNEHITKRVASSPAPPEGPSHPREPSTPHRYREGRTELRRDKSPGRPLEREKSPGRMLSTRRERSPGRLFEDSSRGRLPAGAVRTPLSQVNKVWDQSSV
Description: as §2

HUNK = molecular target: T26, HUNK (Homo sapiens, UniProt P57058); experiment: KINOMEscan at 1 μM, HUNK; format: binding; conditions: 1000 nM, read-out: Percent Control
T26 construct: purchased Eurofins DiscoverX KINOMEscan
Description: as §2

NIK = molecular target: T27, NIK (Homo sapiens, UniProt Q99558); experiment: KINOMEscan at 1 μM, NIK; format: binding; conditions: 1000 nM, read-out: Percent Control
T27 construct: purchased Eurofins DiscoverX KINOMEscan
Description: as §2

AKT1 = molecular target: T28, AKT1 (Homo sapiens, UniProt P31749); experiment: KINOMEscan at 1 μM, AKT1; format: binding; conditions: 1000 nM, read-out: Percent Control
T28 construct: purchased Eurofins DiscoverX KINOMEscan
Description: as §2

FER = molecular target: T29, FER (Homo sapiens, UniProt P16591); experiment: KINOMEscan binding assay at 1 μM, FER; conditions: Compound Concentration 1000 nM; read-out: Percent Control
T29 construct: purchased Eurofins DiscoverX KINOMEscan
Description: as §2

FLT3(D835Y) = molecular target: T30, FLT3(D835Y) (Homo sapiens, UniProt P36888, D835Y); experiment: KINOMEscan binding assay at 1 μM, FLT3(D835Y); conditions: Compound Concentration 1000 nM; read-out: Percent Control
T30 construct: purchased Eurofins DiscoverX KINOMEscan
Description: as §2

FLT3(K663Q) = molecular target: T31, FLT3(K663Q) (Homo sapiens, UniProt P36888, K663Q); experiment: KINOMEscan binding assay at 1 μM, FLT3(K663Q); conditions: Compound Concentration 1000 nM; read-out: Percent Control
T31 construct: purchased Eurofins DiscoverX KINOMEscan
Description: as §2

NEK9 = molecular target: T32, NEK9 (Homo sapiens, UniProt Q8TD19); experiment: KINOMEscan binding assay at 1 μM, NEK9; conditions: Compound Concentration 1000 nM; read-out: Percent Control
T32 construct: purchased Eurofins DiscoverX KINOMEscan
Description: as §2

PRKD1 [4] = molecular target: T10, PRKD1; experiment: KINOMEscan binding assay at 1 μM, PRKD1; conditions: Compound Concentration 1000 nM; read-out: Percent Control
Description: as §2

TIE1 = molecular target: T33, TIE1 (Homo sapiens, UniProt P35590); experiment: KINOMEscan binding assay at 1 μM, TIE1; conditions: Compound Concentration 1000 nM; read-out: Percent Control
T33 construct: purchased Eurofins DiscoverX KINOMEscan
Description: as §2

Cc1cccc(-c2cnc3occ(-c4ccc(C(=O)O)c(C5CCCC5)c4)c3c2)c1 [SGC-CAMKK2-1 (YL-36)]
remaining binding at 1 µM [1]: 73%
remaining binding at 1 µM (GAK): 80%
remaining binding at 1 µM (PIK3C2B): 87%
remaining binding at 1 µM (IRAK3): 88%
remaining binding at 1 µM [2]: 100%
remaining binding at 1 µM (DCAMKL1): 100%
remaining binding at 1 µM (GRK2): 100%
remaining binding at 1 µM (KIT(L576P)): 100%
remaining binding at 1 µM (MET(M1250T)): 100%
remaining binding at 1 µM (PRKD1 [3]): 100%
remaining binding at 1 µM (TSSK1B): 100%
remaining binding at 1 µM (TTK): 100%
remaining binding at 1 µM (WNK4): 100%
remaining binding at 1 µM (YANK1): 100%

O=C(O)c1ccc(-c2coc3ncc(-c4ccccc4)cc23)cc1Cl [Compound 7]
IC50 (PIM2): 1900 nM

O=C(O)c1ccc(-c2coc3ncc(-c4ccccc4)cc23)cc1Cl [SGC-CAMKK2-1N (UNC-YL-83)]
remaining binding at 1 µM (KIT(D816V)): 32%
remaining binding at 1 µM (TRPM6): 53%
remaining binding at 1 µM (WNK1): 66%
remaining binding at 1 µM (MEK5): 67%
remaining binding at 1 µM (PFPK5(P.falciparum)): 69%
remaining binding at 1 µM (PIK3CA(Q546K)): 73%
remaining binding at 1 µM (EPHB6): 75%
remaining binding at 1 µM (PRKX): 76%
remaining binding at 1 µM (PAK4): 82%
remaining binding at 1 µM (NLK): 84%
remaining binding at 1 µM (CIT): 87%
remaining binding at 1 µM (HUNK): 87%
remaining binding at 1 µM (NIK): 94%
remaining binding at 1 µM (AKT1): 100%
remaining binding at 1 µM (FER): 100%
remaining binding at 1 µM (FLT3(D835Y)): 100%
remaining binding at 1 µM (FLT3(K663Q)): 100%
remaining binding at 1 µM (NEK9): 100%
remaining binding at 1 µM (PRKD1 [4]): 100%
remaining binding at 1 µM (TIE1): 100%
